The text below walks through data of US10179761B2, “Compounds, pharmaceutical composition and their use in treating neurodegenerative diseases” (UNIVERSITE DE LILLE 2 DROIT ET SANTE, priority 2014, dated 2019).

Experiment [1] deals with σ2 receptors (Homo sapiens (Human), UniProt Q5BJF2). Description: σ2 binding assay, Jurkat cell membranes, [3H]-DTG in presence of (+)-pentazocine. To be noted: hydrochloride salts; mean of 2 or 3 independent experiments; Ki from IC50 (Cheng-Prusoff); read-out: Sigma 2 Ki. Here is the method: The σ binding assays were performed according to Ganapathy et al. (Ganapathy, M. E.; Prasad, P. D.; Huang, W.; Seth, P.; Leibach, F. H.; Ganapathy, V. Molecular and ligand-binding characterization of the sigma-receptor in the Jurkat human T lymphocyte cell line. J. Pharmacol. Exp. Ther. 1999, 289, 251-260). […] The σ2 binding assay was performed by incubating Jurkat cell membranes ([…] protein per tube) with [^3H]-DTG (25 nM) in presence of (+)-pentazocine (1 μM) to saturate σ1 receptors, and a range of concentrations of tested compounds, at room temperature for 1 hour in 5 mM Tris/HCl buffer (pH=7.4). The final assay volume was 0.5 mL. Binding was terminated by rapid filtration through Wathman GF/B filters, which were then washed with 5×1 mL ice-cold NaCl solution and allowed to dry before bound radioactivity was measured using liquid scintillation counting. Nonspecific binding was determined, in both assays, under similar conditions, but in presence of 10 μM unlabeled haloperidol. Inhibition constants (Ki) were calculated from the IC50 values according to the method of Cheng and Prusoff (Cheng, Y.; Prusoff, W. H. Relationship between the inhibition constant (Ki) and the concentration of inhibitor which causes 50 percent inhibition (IC50) of an enzymatic reaction. Biochem Pharmacol. 1973, 22 (23), 3099-108): […]

For experiment [2], the system named is SJL/J mice. Description: EAE model, curative treatment. In kind it is in vivo. To be noted: p.o. from onset of EAE (grade 2) for 14 days, 0.5 or 1 mg/kg; followed 70 days; FIG. 4. An excerpt: Animals. SJL/J mice were purchased from Janvier (Le Genest-St-Isle, France) and bred under conventional barrier protection at the Pasteur Institute (Lille, France). All experiment protocols and procedures were in compliance with the European Communities Council Directives of 24 Nov. 1986 (86/609/EEC) and were approved by the local ethical committee (CEEA 102009R). Efforts were made to minimize the number of animals used and their suffering. Animals that reached severe hind limb paresis (clinical grade 3) were isolated, and hydration and food access were facilitated.
EAE induction and treatment. The method of EAE induction was similar to previously published methods (Lee-Chang et al., Immunol Lett. 2011 Mar. 30; 135(1-2):108-17). […]
Body weight and clinical signs of EAE were monitored daily. The severity of clinical symptoms was scored based on a standard neurological scoring system for EAE, as follows: grade 0, no disease; grade 1, moderate tail hypotonia and/or slight clumsy gait; grade 2, tail atony and/or clumsy gait; grade 3, severe hind limb paresis; grade 4, paraplegia; grade 5, tetraplegia. […]

pKi: −log10 of the molar value. Entries after “also recorded” stand apart in the source; their conditions may differ.

σ2 receptors, sequence (Q5BJF2 whole entry): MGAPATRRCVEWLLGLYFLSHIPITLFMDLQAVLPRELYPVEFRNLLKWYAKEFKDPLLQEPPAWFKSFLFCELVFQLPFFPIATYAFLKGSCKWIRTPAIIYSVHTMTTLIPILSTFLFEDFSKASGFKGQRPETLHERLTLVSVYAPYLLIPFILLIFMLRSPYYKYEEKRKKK

What is called pKi is the Ki on a negative log10 scale, so that one unit is a factor of ten. In the case of `CN(CCCNC(=O)c1ccc(Cl)cc1)Cc1ccccc1` [Compound 3.1.10, N-[3-(benzylmethylamino)propyl]-4-chlorobenzamide], in experiment [1], the negative logarithm of the Ki (pKi) is 6.72. For the same compound, the “EAE clinical course, curative treatment” value in experiment [2] is “Amelioration of EAE; also recorded: alleviating the symptoms of EAE”.
